Test [1] deals with T1, Vasoactive intestinal polypeptide receptor 2 (Homo sapiens) (UniProt P41587).
T1 sequence (whole entry): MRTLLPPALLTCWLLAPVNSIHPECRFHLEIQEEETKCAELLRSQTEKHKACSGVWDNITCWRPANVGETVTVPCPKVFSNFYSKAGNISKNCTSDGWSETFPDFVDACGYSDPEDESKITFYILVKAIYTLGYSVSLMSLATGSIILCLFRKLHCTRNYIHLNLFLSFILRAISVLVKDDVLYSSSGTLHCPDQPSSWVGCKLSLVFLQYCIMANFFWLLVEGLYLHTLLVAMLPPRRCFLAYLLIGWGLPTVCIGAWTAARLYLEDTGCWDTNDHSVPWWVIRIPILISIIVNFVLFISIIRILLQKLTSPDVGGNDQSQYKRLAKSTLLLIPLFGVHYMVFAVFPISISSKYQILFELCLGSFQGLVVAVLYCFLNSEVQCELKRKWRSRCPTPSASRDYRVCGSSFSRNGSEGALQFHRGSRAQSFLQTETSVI
Description: Antagonist activity at recombinant human N-terminal signal peptide/FLAG epitope-tagged VIPR2 expressed in HEK293 cells co-expressing CAMYEL assessed as inhibition of VIP-induced cAMP accumulation at 0.5 uM preincubated for 5 mins with luciferin, coelenterazine H followed by VIP addition measured after 5 mins by BRET assay relative to control. The format is functional, cell-based. On the technique in general: cAMP levels reflect the balance of adenylyl cyclase and phosphodiesterase activity.

Test [2] deals with T1, Vasoactive intestinal polypeptide receptor 2 (Homo sapiens). Description: Antagonist activity at recombinant human N-terminal signal peptide/FLAG epitope-tagged VIPR2 expressed in HEK293 cells co-expressing CAMYEL assessed as inhibition of VIP-induced cAMP accumulation at 5 uM preincubated for 5 mins with luciferin, coelenterazine H followed by VIP addition measured after 5 mins by BRET assay relative to control. Format: functional, cell-based.

Test [3] shares this target. Description: Antagonist activity at recombinant human N-terminal signal peptide/FLAG epitope-tagged VIPR2 expressed in HEK293 cells co-expressing CAMYEL assessed as inhibition of VIP-induced cAMP accumulation at 1 uM preincubated for 5 mins with luciferin, coelenterazine H followed by VIP addition measured after 5 mins by BRET assay relative to control. Format: functional, cell-based.

Test [4] shares this target. Description: Antagonist activity at recombinant human N-terminal signal peptide/FLAG epitope-tagged Rluc8-fused VIPR2 expressed in HEK293 cells assessed as inhibition of VIP-induced human mVenus-beta-arrestin2 binding at 5 uM preincubated for 5 mins with luciferin, coelenterazine H followed by VIP addition measured after 5 mins by BRET assay relative to control. Format: cell-based. In general terms: BRET reads energy transfer from a luciferase to a nearby fluorophore.

Test [5] shares this target. Description: Antagonist activity at recombinant human N-terminal signal peptide/FLAG epitope-tagged Rluc8-fused VIPR2 expressed in HEK293 cells assessed as inhibition of VIP-induced human mVenus-beta-arrestin2 binding at 1 uM preincubated for 5 mins with luciferin, coelenterazine H followed by VIP addition measured after 5 mins by BRET assay relative to control. The format is cell-based.

For test [6] the target is unchanged. Description: Antagonist activity at recombinant human N-terminal signal peptide/FLAG epitope-tagged Rluc8-fused VIPR2 expressed in HEK293 cells assessed as inhibition of VIP-induced human mVenus-beta-arrestin2 binding at 0.5 uM preincubated for 5 mins with luciferin, coelenterazine H followed by VIP addition measured after 5 mins by BRET assay relative to control. Format: cell-based.

Structures are written as SMILES.

One may read the inhibition as the relative decrease from the control value, in per cent. Turning to `O=C(NCCc1cccc(Cl)c1)[C@@H](Cc1ccccc1)C[C@H](O)CNS(=O)(=O)c1ccc([N+](=O)[O-])cc1`, the inhibition in test [1] is 9.3%; in test [2], 13%; in test [3] it was 10.7%; in test [4], 14.7%; in test [5] it was 23.4%; in test [6], 11.1 to 13.8%.
For `CCCCCNc1ccc(S(=O)(=O)NC[C@@H](O)C[C@@H](Cc2ccccc2)C(=O)N[C@H]2c3ccccc3C[C@H]2O)cc1`, the inhibition in test [1] was 10.8%; in test [2] it was 19.1%; in test [3], 19.1%; in test [4], 11.3%; in test [5], 2.3%; in test [6], 2.8 to 15.2%.
Consider `CCC(=O)Nc1ccc(S(=O)(=O)NC[C@@H](O)C[C@@H](Cc2ccccc2)C(=O)N[C@H]2c3ccccc3C[C@H]2O)cc1`, for which the inhibition in test [1] was 0.6%; in test [2], 26.9%; in test [3] it was 1.5%; in test [5], -1.2%; in test [6] it was -3.4 to 8.25%.
For the compound `CC(=O)Nc1ccc(S(=O)(=O)NC[C@H](C[C@@H](Cc2ccccc2)C(=O)N[C@H]2c3ccccc3C[C@H]2O)OC(C)=O)cc1`, the inhibition in test [1] is -4.3%; in test [2], 3%; in test [3], 32.3%; in test [4] it was 10.5%; in test [5], -1.8%; in test [6] it was -9.8 to 6.75%.
In the case of `O=C(N[C@H]1c2ccccc2C[C@H]1O)[C@H](Cc1ccccc1)C[C@H](O)CNS(=O)(=O)c1ccc(C(=O)N2CCCCC2)cc1`, the inhibition in test [1] was -5.3%; in test [2] it was -1.4%; in test [3], -7.3%; in test [6], -6.85 to 0%.
With `O=C(NC[C@@H](O)C[C@@H](Cc1ccccc1)C(=O)N[C@H]1c2ccccc2C[C@H]1O)C1CCCCCC1`, the inhibition in test [1] was 18.4%; in test [2], 17%; in test [3] it was 17%; in test [4], 10.5%; in test [5], 16.4%; in test [6], 13.8 to 24.4%.
With `O=C(NC1CCCc2ccccc21)[C@H](Cc1ccccc1)C[C@H](O)CNS(=O)(=O)c1ccc([N+](=O)[O-])cc1` (stereo not given in full), the inhibition is 8.8% in test [1]; 17.5% in test [2]; 12.4% in test [3]; 10.2% in test [4]; 7.4% in test [5]; 3.3 to 13.8% in test [6].
`O=C(CCCCBr)NC[C@@H](O)C[C@@H](Cc1ccccc1)C(=O)N[C@H]1c2ccccc2C[C@H]1O`: the inhibition in test [1] is 11.7%; in test [2], 9.4%; in test [3], 12.9%; in test [6], -0.6 to 1.7%.
Take `CCN(CC)C(=O)[C@@H](Cc1ccccc1)C[C@H](O)CNS(=O)(=O)c1ccc([N+](=O)[O-])cc1`: the inhibition in test [1] was 0.5%; in test [3], -8.4%; in test [4], -2.7%; in test [5], 1.2%; in test [6], -6.6 to -3.6%.
For the compound `O=C(NC1CCCCCC1)[C@H](Cc1ccccc1)C[C@H](O)CNS(=O)(=O)c1ccc([N+](=O)[O-])cc1`, the inhibition was 1.7% in test [1]; 12.9% in test [2]; 5.6% in test [3]; -2.4% in test [4]; -5.4% in test [5].
For `O=C(NC[C@@H](O)C[C@@H](Cc1ccccc1)C(=O)N[C@H]1c2ccccc2C[C@H]1O)c1ccncc1`, the inhibition in test [1] was 14.2%; in test [2] it was 21%; in test [3], 19.2%; in test [4], -8.8%; in test [5], 10.9%.
Consider `O=C([C@H](Cc1ccccc1)C[C@H](O)CNS(=O)(=O)c1ccc([N+](=O)[O-])cc1)N1CCC(CO)CC1`, for which the inhibition was 2.1% in test [1]; 6.2% in test [2]; 4.4% in test [3]; -4.5% in test [4]; -8.4 to 0.85% in test [6].
On to `CCNC(=O)[C@H](Cc1ccccc1)C[C@H](O)CNS(=O)(=O)c1ccc([N+](=O)[O-])cc1`, for which the inhibition in test [1] is -7.1%; in test [2] it was -6.2%; in test [3] it was -0.4%; in test [5], 0.1%; in test [6], -9.25 to 15.2%.
In the same order, the values of `O=C(NC[C@@H](O)C[C@@H](Cc1ccccc1)C(=O)N[C@H]1c2ccccc2C[C@H]1O)c1cccc(CCl)c1` are 0.5%, 15.1%, 2.3%, 5.7% and -8.1 to 2.4%.
Take `O=C([C@@H](Cc1ccccc1)C[C@H](O)CNS(=O)(=O)c1ccc([N+](=O)[O-])cc1)N1CCOCC1`: the inhibition is -5.8% in test [1], 3% in test [2], 0.3% in test [4] and 1.65 to 7% in test [6].
For the compound `CCNC(=O)[C@@H](Cc1ccccc1)C[C@H](O)CNS(=O)(=O)c1ccc([N+](=O)[O-])cc1`, the inhibition in test [3] was -0.9%; in test [4], -7.6%; in test [5] it was 6%; in test [6], -10 to 14.9%.
On to `CO[C@@H]1Cc2ccccc2[C@@H]1NC(=O)[C@H](Cc1ccccc1)C[C@H](O)CN(C)S(=O)(=O)c1ccc([N+](=O)[O-])cc1`, for which the inhibition was 21.1% in test [1], 26% in test [2], 11.3% in test [3] and 4.9 to 6.9% in test [6].
In the same order, the values of `NC(=O)[C@H](Cc1ccccc1)C[C@H](O)CNS(=O)(=O)c1ccc([N+](=O)[O-])cc1` are 6.7%, 2.1%, 3.6% and -6.5 to 10.4%.
Regarding `O=C(NCc1ccc(F)cc1F)[C@H](Cc1ccccc1)C[C@H](O)CNS(=O)(=O)c1ccc([N+](=O)[O-])cc1`, the inhibition is 2.4% in test [1], 22.1 to 23.6% in test [2], 7.2 to 22.1% in test [3] and 30.8% in test [4].
As to `CC(C)C(=O)NC[C@@H](O)C[C@@H](Cc1ccccc1)C(=O)N[C@H]1c2ccccc2C[C@H]1O`, the inhibition in test [1] was 0.7%; in test [2], -0.9%; in test [3] it was 2.6%.
`CO[C@@H]1Cc2ccccc2[C@@H]1NC(=O)[C@H](Cc1ccccc1)C[C@H](O)CNS(=O)(=O)c1ccc([N+](=O)[O-])cc1`: the inhibition is 15.7% in test [1]; 5.9% in test [2]; 5.9% in test [3]; -10% in test [4]; -7.1 to -2.05% in test [6].
With `Cc1ccc([N+](=O)[O-])cc1S(=O)(=O)NC[C@@H](O)C[C@@H](Cc1ccccc1)C(=O)N[C@H]1c2ccccc2C[C@H]1O`, the inhibition in test [1] was 10.9%; in test [2], 18.3%; in test [3], 13.6%; in test [4], -0.6%; in test [5], -3.8%.
`O=C([C@H](Cc1ccccc1)C[C@H](O)CNS(=O)(=O)c1ccc([N+](=O)[O-])cc1)N1CCCCC1`: the inhibition in test [1] was -4.8%; in test [2] it was 0.5%; in test [3] it was -4.8%; in test [4], -2.8%.
Turning to `C[C@H](CC(C)(C)C)NC(=O)[C@H](Cc1ccccc1)C[C@H](O)CNS(=O)(=O)c1ccc([N+](=O)[O-])cc1`, the inhibition in test [1] is -7.9%; in test [2], -0.1%; in test [3], 4.4%; in test [5], 3%; in test [6] it was -5.2 to 23.3%.

The values are drawn from ChEMBL document CHEMBL3879914, “Inhibitors of central nervous system vasoactive inhibitory peptide receptor 2” (2014).
